Here are results for four compounds from publication PMC10397409, “The action of physiological and synthetic steroids on the calcium channel CatSper in human sperm” (Frontiers in Cell and Developmental Biology, 2023).

Like-named read-outs stand apart in the source and are kept apart here.

In one experiment the target is T1, CatSper (Homo sapiens, UniProt Q7RTX7+Q86XQ3+Q8NEC5+Q96P56).
T1 construct: Motile spermatozoa were selected by a ‘swim-up’ procedure; endogenous in cells; host or cells: motile human spermatozoa (swim-up) from healthy donors
Description: Steroid-induced increase in [Ca2+]i in human sperm (Fluo-4 HTS assay, screen 1 activators). The experiment is classed as cell-based. The settings on record: for Emax: read-out: Max amplitude (%) (± SD).

In the next experiment the test system is human sperm. Description: Acrosome reaction in live human sperm (PSA-FITC flow cytometry). The experiment is classed as cell-based. The conditions noted are these: 45 min; for cells with induced acrosome reaction: steroid 10 µM, capacitated sperm, increase not significant. On the procedure: The evaluation of acrosome reaction in live human sperm cells was performed using a modified version of a previously described method ([Zoppino et al., 2012]). Briefly, swim-up recovered motile spermatozoa were allowed to capacitate for 4 h at 37°C in capacitating media (HTF+) containing: 93.8 mM NaCl, 4.7 mM KCl, 0.2 mM MgSO4, 0.369 mM KH2PO4, 2.04 mM CaCl2, 20.98 mM HEPES, 2.78 mM glucose, 21.4 mM Na-lactate, 25 mM NaHCO3, 6.6 µM Na-pyruvate, and the pH was adjusted to 7.35. Capacitated sperm were then incubated for 30 min with 5 μg/mL Pisum sativum agglutinin conjugated with fluorescein isothiocyanate (PSA-FITC) and 10 μg/mL Hoechst-33342. Samples were centrifuged at 700 x g for 10 min at room temperature to remove excess dye and resuspended in HTF+. Sperm were then incubated for 45 min in the absence (DMSO) or presence of the steroids at 10 μM, or positive control P4 at 10 µM. The ionophore A23187 was also used as a positive control and incubated with sperm at 2 µM for 30 min only. PI (0.5 μg/mL) was then added to all samples which were analyzed using BDFACSAria. FITC-PSA fluorescence was detected by excitation at 475 nm and emission at 560/35 nm, PI was detected by excitation at 530 nm and emission at 675/75 nm and Hoechst was detected by excitation at 346 nm and emission at 460 nm. Hoechst-positive and PI-negative cells were classified as live cells. Doublet exclusion was performed by two-dimensional dot plot analysis of forward-scatter width (FSC-W) versus forward-scatter height (FSC-H), and side-scatter width (SSC-W) versus side-scatter height (SSC-H) on the pre-selected singlets. Data were collected from 40,000 […] per sample to define the sperm population. Based on the selected population, PI-negative and PSA-FITC-positive cells were selected as live acrosome reacted cells, whereas PI-negative and PSA-FITC-negative cells were selected as live acrosome intact cells.
(In flow cytometry, cells or beads pass a laser one at a time.)

[1] abbreviates: EC50 (±SD), increase in [Ca2+]i, dose-response 90 µM to 0.3 nM.
Where [2] appears, read: Mean EC50 µM (±SD), pooled from 3 independent experiments.
Setting [3] is: maximal amplitude of steroid-induced [Ca2+]i increase, relative to P4, 3 independent experiments.

As to `C[C@]12CC[C@H](O)C[C@@H]1CC[C@@H]1[C@@H]2CC[C@]2(C)C(=O)CC[C@@H]12` [Epiandrosterone], at CatSper, the “EC02 compared with reported maximum concentration in blood serum” value was “EC02 below the reported maximum concentration found in blood serum” and the Emax came to 78%. The EC50 at CatSper (setting [1]) worked out at 0.209 µM. The EC50 at CatSper (setting [2]) was 0.207 µM. Also, in the experiment with human sperm, the “cells with induced acrosome reaction” value is recorded as “more than 10%”.
As for `CC(=O)[C@H]1CC[C@H]2[C@@H]3CC=C4C[C@@H](O)CC[C@]4(C)[C@H]3CC[C@]12C` [Pregnenolone], the “EC02 compared with reported maximum concentration in blood serum” value on CatSper was “EC02 below the reported maximum concentration found in blood serum”. For the same compound, on CatSper, the “effective concentrations as low as (dose-dependent increase in [Ca2+]i)” value is reported as 10 nM. Also, the EC50 was found to be 0.073 µM at CatSper (setting [1]) and 0.07 µM on CatSper (setting [2]). Moreover, the Emax on CatSper (setting [3]) stood at 73%. Besides, the “cells with induced acrosome reaction” value with human sperm is “more than 10%”.
As to `CC(=O)[C@H]1CC[C@H]2[C@@H]3CCC4=CC(=O)CC[C@]4(C)[C@H]3CC[C@]12C` [Progesterone], the EC50 on CatSper (increase in [Ca2+]i in human sperm, read-out: EC50) worked out at 0.0025 µM; at CatSper (increase in [Ca2+]i, dose-response 90 µM to 0.3 nM, read-out: EC50 (±SD)), 0.003 µM; on CatSper (pooled from 3 independent experiments, read-out: Mean EC50 µM (±SD)) it was 0.002 µM. The Emax on CatSper (setting [3]) came to 100%. For the same compound, in the experiment on human sperm (steroids 10 µM, P4 10 µM), the “effect on acrosome reaction (AR)” value is recorded as “only slightly increased the AR”.
In the case of `C[C@]12Cc3c[nH]nc3C[C@@H]1CC[C@@H]1[C@@H]2CC[C@@]2(C)[C@H]1CC[C@]2(C)O` [Stanozolol], the EC50 on CatSper (setting [1]) was found to be 0.285 µM; on CatSper (setting [2]), 0.081 µM. On CatSper (at low concentrations in the nanomolar range), the “increase in [Ca2+]i” value turned out to be 30%. On CatSper, the Emax worked out at 79%. Also, in the experiment with human sperm, the “cells with induced acrosome reaction” value is “more than 10%”.

One may read the EC50 as the concentration needed to bring the measured effect to its halfway point.
